Results taken from the supplement of paper PMC10307832.

Columns and labels:
Assay in all cases: relative viability (nuclei count vs DMSO), 5 days (fraction); higher = more cells survive
EPLC-272H = system: EPLC-272H
Procedure, shortened: (§1)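 Dosing by pin tool came one day after lung cancer cell lines were seeded in 1536-well plates, using either one drug or a fixed anchor-drug dose plus five library-drug doses (not always all listed) in √10 steps. After 5 days, nuclei were counted on 4× images. Relative viability is treated-well nuclei count divided by vehicle-well nuclei count, and values are medians of duplicate plates.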

NCI-H727 = system: NCI-H727
Procedure, shortened: as §1

NCI-H358 = system: NCI-H358
Procedure, shortened: as §1

NCI-H2087 = system: NCI-H2087
Procedure, shortened: as §1

HCC-827 = system: HCC-827
Procedure, shortened: as §1

NCI-H1792 = system: NCI-H1792
Procedure, shortened: as §1

NCI-H1650 = system: NCI-H1650
Procedure, shortened: as §1

LOU-NH91 = system: LOU-NH91
Procedure, shortened: as §1

LU99A = system: LU99A
Procedure, shortened: as §1

LK-2 = system: LK-2
Procedure, shortened: as §1

NCI-H1563 = system: NCI-H1563
Procedure, shortened: as §1

NCI-H522 = system: NCI-H522
Procedure, shortened: as §1

NCI-H2126 = system: NCI-H2126
Procedure, shortened: as §1

EKVX = system: EKVX
Procedure, shortened: as §1

COR-L 105 = system: COR-L 105
Procedure, shortened: as §1

BEN = system: BEN
Procedure, shortened: as §1

SW 900 = system: SW 900
Procedure, shortened: as §1

LCLC-97TM1 = system: LCLC-97TM1
Procedure, shortened: as §1

SK-MES-1 = system: SK-MES-1
Procedure, shortened: as §1

SW 1573 = system: SW 1573
Procedure, shortened: as §1

EMC-BAC-2 = system: EMC-BAC-2
Procedure, shortened: as §1

HCC-78 = system: HCC-78
Procedure, shortened: as §1

SMILES: COCC1(CO)C(=O)C2CCN1CC2 (stereo not drawn) [PRIMA-1MET] + Cc1nc(Nc2ncc(C(=O)Nc3c(C)cccc3Cl)s2)cc(N2CCN(CCO)CC2)n1 [Dasatinib] (partner 0.075 µM)
- relative viability (EPLC-272H; first compound 2 µM): 0.349
- relative viability (EPLC-272H; first compound 6.325 µM): 0.347
- relative viability (EPLC-272H; first compound 20 µM): 0.0979
- relative viability (NCI-H727; first compound 0.2 µM): 0.273
- relative viability (NCI-H727; first compound 0.6325 µM): 0.346
- relative viability (NCI-H727; first compound 2 µM): 0.351
- relative viability (NCI-H727; first compound 6.325 µM): 0.225
- relative viability (NCI-H727; first compound 20 µM): 0.166
- relative viability (NCI-H358; first compound 0.2 µM): 0.186
- relative viability (NCI-H358; first compound 2 µM): 0.174
- relative viability (NCI-H358; first compound 6.325 µM): 0.178
- relative viability (NCI-H358; first compound 20 µM): 0.0822
- relative viability (NCI-H2087; first compound 0.2 µM): 0.471
- relative viability (NCI-H2087; first compound 0.6325 µM): 0.727
- relative viability (NCI-H2087; first compound 2 µM): 0.626
- relative viability (NCI-H2087; first compound 6.325 µM): 0.876
- relative viability (NCI-H2087; first compound 20 µM): 0.289
- relative viability (HCC-827; first compound 0.2 µM): 0.417
- relative viability (HCC-827; first compound 0.6325 µM): 0.337
- relative viability (HCC-827; first compound 2 µM): 0.427
- relative viability (HCC-827; first compound 6.325 µM): 0.332
- relative viability (HCC-827; first compound 20 µM): 0.315
- relative viability (NCI-H1792; first compound 0.2 µM): 0.816
- relative viability (NCI-H1792; first compound 0.6325 µM): 0.717
- relative viability (NCI-H1792; first compound 2 µM): 0.811
- relative viability (NCI-H1792; first compound 6.325 µM): 0.883
- relative viability (NCI-H1792; first compound 20 µM): 0.754
- relative viability (NCI-H1650; first compound 0.2 µM): 0.341
- relative viability (NCI-H1650; first compound 0.6325 µM): 0.327
- relative viability (NCI-H1650; first compound 2 µM): 0.337
- relative viability (NCI-H1650; first compound 6.325 µM): 0.282
- relative viability (NCI-H1650; first compound 20 µM): 0.06
- relative viability (LOU-NH91; first compound 0.2 µM): 0.608
- relative viability (LOU-NH91; first compound 0.6325 µM): 0.508
- relative viability (LOU-NH91; first compound 2 µM): 0.569
- relative viability (LOU-NH91; first compound 6.325 µM): 0.578
- relative viability (LOU-NH91; first compound 20 µM): 0.483
- relative viability (LU99A; first compound 0.2 µM): 0.612
- relative viability (LU99A; first compound 0.6325 µM): 0.513
- relative viability (LU99A; first compound 2 µM): 0.586
- relative viability (LU99A; first compound 6.325 µM): 0.671
- relative viability (LU99A; first compound 20 µM): 0.0333
- relative viability (LK-2; first compound 0.2 µM): 0.275
- relative viability (LK-2; first compound 0.6325 µM): 0.223
- relative viability (LK-2; first compound 2 µM): 0.329
- relative viability (LK-2; first compound 6.325 µM): 0.164
- relative viability (LK-2; first compound 20 µM): 0.116
- relative viability (NCI-H1563; first compound 0.2 µM): 0.502
- relative viability (NCI-H1563; first compound 0.6325 µM): 0.426
- relative viability (NCI-H1563; first compound 6.325 µM): 0.548
- relative viability (NCI-H1563; first compound 20 µM): 0.422
- relative viability (NCI-H522; first compound 0.2 µM): 0.797
- relative viability (NCI-H522; first compound 0.6325 µM): 0.738
- relative viability (NCI-H522; first compound 2 µM): 0.852
- relative viability (NCI-H522; first compound 6.325 µM): 0.68
- relative viability (NCI-H522; first compound 20 µM): 0.0665
- relative viability (NCI-H2126; first compound 0.2 µM): 0.722
- relative viability (NCI-H2126; first compound 0.6325 µM): 0.58
- relative viability (NCI-H2126; first compound 2 µM): 0.643
- relative viability (NCI-H2126; first compound 6.325 µM): 0.646
- relative viability (NCI-H2126; first compound 20 µM): 0.605
- relative viability (EKVX; first compound 0.2 µM): 0.469
- relative viability (EKVX; first compound 0.6325 µM): 0.482
- relative viability (EKVX; first compound 2 µM): 0.468
- relative viability (EKVX; first compound 6.325 µM): 0.518
- relative viability (EKVX; first compound 20 µM): 0.564
- relative viability (COR-L 105; first compound 0.2 µM): 0.346
- relative viability (COR-L 105; first compound 0.6325 µM): 0.404
- relative viability (COR-L 105; first compound 2 µM): 0.292
- relative viability (COR-L 105; first compound 6.325 µM): 0.161
- relative viability (COR-L 105; first compound 20 µM): 0.091
- relative viability (BEN; first compound 0.2 µM): 0.306
- relative viability (BEN; first compound 0.6325 µM): 0.279
- relative viability (BEN; first compound 6.325 µM): 0.271
- relative viability (BEN; first compound 20 µM): 0.339
- relative viability (SW 900; first compound 0.2 µM): 0.632
- relative viability (SW 900; first compound 0.6325 µM): 0.642
- relative viability (SW 900; first compound 2 µM): 0.386
- relative viability (SW 900; first compound 6.325 µM): 0.0491
- relative viability (SW 900; first compound 20 µM): 0.0965
- relative viability (LCLC-97TM1; first compound 0.2 µM): 0.461
- relative viability (LCLC-97TM1; first compound 0.6325 µM): 1.01
- relative viability (LCLC-97TM1; first compound 2 µM): 0.815
- relative viability (LCLC-97TM1; first compound 6.325 µM): 0.855
- relative viability (LCLC-97TM1; first compound 20 µM): 0.833
- relative viability (SK-MES-1; first compound 0.2 µM): 0.303
- relative viability (SK-MES-1; first compound 0.6325 µM): 0.475
- relative viability (SK-MES-1; first compound 2 µM): 0.447
- relative viability (SK-MES-1; first compound 6.325 µM): 0.286
- relative viability (SK-MES-1; first compound 20 µM): 0.242
- relative viability (SW 1573; first compound 0.2 µM): 0.452
- relative viability (SW 1573; first compound 0.6325 µM): 0.411
- relative viability (SW 1573; first compound 2 µM): 0.356
- relative viability (SW 1573; first compound 6.325 µM): 0.0331
- relative viability (SW 1573; first compound 20 µM): 0.0202
- relative viability (EMC-BAC-2; first compound 0.2 µM): 0.394
- relative viability (EMC-BAC-2; first compound 0.6325 µM): 0.298
- relative viability (EMC-BAC-2; first compound 6.325 µM): 0.378
- relative viability (EMC-BAC-2; first compound 20 µM): 0.247
- relative viability (HCC-78; first compound 0.2 µM): 0.427
- relative viability (HCC-78; first compound 0.6325 µM): 0.331
- relative viability (HCC-78; first compound 6.325 µM): 0.442
- relative viability (HCC-78; first compound 20 µM): 0.335
